pEC50, pIC50: −log10 of the molar value.
Key:
[1] = molecular target: HSP90α (Homo sapiens (Human), UniProt P07900); assay: Fluorescence polarization (FP) HSP90-alpha target binding assay; conditions: fluorescence polarization; read-out: Target binding ability HSP90α FP IC50
Excerpt: In the present invention, the method of fluorescence polarization (FP) was used to establish the screening platform for HSP90-alpha inhibitors. The principle based on is to calculate fluorescence polarization values in horizontal and vertical directions by detecting molecular weight changes before and after interaction of fluorescent labeled small molecules with other molecules, in use for correlation analysis. If binding equilibria between the fluorescent labeled small molecule and the macromolecule is established, it moves slowly when excited, and the fluorescence polarization values measured will increase. If the fluorescent labeled small molecule binding to the macromolecule is replaced with other ligands, its rotational or inversional speed in free state will become faster, the emitted light would be depolarized with respect to the exciting light plane, and thus the polarized light value measured will decrease, so as to calculate the polarization value of the sample (the unit of polarization value is mP).
The fluorescent labeled small molecule used in the present invention was VER-00051001 (synthesized by reference to the synthetic method described in JMC, 2008, 51, 196-218). The reaction was carried out in a 384-well black plate, using the reaction hydrophobic protein HFB buffer: 100 mM Tris.Cl pH 7.4, 20 mM KCl, 6 mM MgCl2, 5 μg/mL BSA, 25 nM full-length Hsp90U, 10 nM VER-51001. The volume of the reaction system was […], containing 5 nM GM-BODIPY (geldanamycin), 30 nM HSP90 and the test small molecular compound or DMSO (dimethyl sulfoxide), wherein the DMSO content was 2% o. Additional two group wells were established, wherein the wells only added with HFB buffer were used as blank controls, and the wells further added with 5 nM GM-BODIPY were used as negative controls. The reaction was carried out at 4° C. for 12-16 hours. The mP value was measured by Biotek microplate reader at 485 nm of excitation wavelength and 535 nm of emission wavelength. The inhibition rate was calculated using the following equation: (Compound-free mP−Compound mP)/(Compound-free mP−negative control mP)×100%

[2] = system: human lung cancer cell line A549; assay: Tumor cell growth inhibition, SRB staining, A549; format: cell-based; conditions: A549, 72 h
Experimental: The growth inhibition assay of tumor cells was detected by sulforhodamine B (SRB) staining method. The specific steps were as follows: inoculating human colon cancer cell line HCT116 and human lung cancer cell line A549 (purchased from American Type Culture Collection, ATCC) at the logarithmic growth phase into a 96-well micro culture plate at an appropriate concentration of 4000 cells/well, 100 μL for each well; after culturing overnight, adding with the compound at different concentrations (100, 10, 1, 0.1, 0.01 μM) to react for 72 h, wherein triplicate wells were set up for each concentration, and solvent control wells with the corresponding concentration and zero wells without cells were also set up. After the completion of the reaction, the culture medium was removed from the adherent cells, the later was added with 10% (w/v) trichloroacetic acid (100 μL/well) at 4° C. to fix for 1 h, and then washed five times with distilled water. After drying at room temperature, 100 μL of SRB solution (4 mg/mL, dissolved in 1% glacial acetic acid) was added into each well, followed by incubation and staining for 15 min at room temperature. The uncombined SRB was removed by washing five times with 1% glacial acetic acid. After drying at room temperature, 100 μL of 10 mM Tris solution was added into each well, and the optical density (OD) at 515 nm was measured by a […] microplate reader. The inhibition rate of the drug to tumor cell growth was calculated according to the following equation: Inhibition rate (%)=(OD of control well-OD of drug well)/OD of control well×100%. The experiment was repeated twice.

| SMILES | pIC50 [1] | pEC50 [2] |
| --- | --- | --- |
| CCNC(=O)c1onc(-c2cc(C(C)C)c(O)cc2O)c1-c1ccc2c(c1)CCN(C)CC2 [Example 27, 3-(2,4-dihydroxyl-5-isopropylphenyl)-N-ethyl-4-(3-methyl-2,3,4,5-tetrahydro-1H-benzo[d]azepin-7-yl)isoxazole-5-carboxamide] | > 7.70 | > 7.70 |
| CCNC(=O)c1onc(-c2cc(C(C)C)c(O)cc2O)c1-c1ccc2c(c1)CCNCC2 [Example 28, 3-(2,4-dihydroxyl-5-isopropylphenyl)-N-ethyl-4-(2,3,4,5-tetrahydro-1H-3-benzazepin-7-yl) isoxazole-5-carboxamide] | > 7.70 | > 7.70 |
| CCNC(=O)c1onc(-c2cc(C(C)C)c(O)cc2O)c1-c1ccc2cnccc2c1 [Example 29, 3-(2,4-dihydroxyl-5-isopropylphenyl)-N-ethyl-4-(isoquinolin-6-yl)isoxazole-5-carboxamide] | > 7.70 | 7.00 to 7.70 |
| CCNC(=O)c1noc(-c2cc(Br)c(O)cc2O)c1-c1ccc2c(c1)CCN(C)C2 [Example 30, 5-(2,4-dihydroxyl-5-bromo-phenyl)-N-ethyl-4-(2-methyl-1,2,3,4-tetrahydroisoquinolin-6-yl)isoxazole-3-carboxamide] | 7.00 to 7.70 | < 7.00 |
| CCNC(=O)c1noc(-c2cc(Cl)c(O)cc2O)c1-c1ccc2c(c1)CCN(C)C2 [Example 31, 5-(2,4-dihydroxyl-5-chloro-phenyl)-N-ethyl-4-(2-methyl-1,2,3,4-tetrahydroisoquinolin-6-yl)isoxazole-3-carboxamide] | 7.00 to 7.70 | < 7.00 |
| CCNC(=O)c1noc(-c2cc(C)c(O)cc2O)c1-c1ccc2c(c1)CCN(C)C2 [Example 32, 5-(2,4-dihydroxyl-5-methylphenyl)-N-ethyl-4-(2-methyl-1,2,3,4-tetrahydroisoquinolin-6-yl)isoxazole-3-carboxamide] | > 7.70 | < 7.00 |
| CCNC(=O)c1noc(-c2cc(CC(C)C)c(O)cc2O)c1-c1ccc2c(c1)CCN(C)C2 [Example 33, 5-(5-isobutyl-2,4-dihydroxyl-phenyl)-N-ethyl-4-(2-methyl-1,2,3,4-tetrahydroisoquinolin-6-yl)isoxazole-3-carboxamide] | 7.00 to 7.70 | < 7.00 |
| CCNC(=O)c1noc(-c2cc(CC)c(O)cc2O)c1-c1ccc2c(c1)CCN(C)C2 [Example 34, 5-(5-ethyl-2,4-dihydroxyl-phenyl)-N-ethyl-4-(2-methyl-1,2,3,4-tetrahydroisoquinolin-6-yl)isoxazole-3-carboxamide] | > 7.70 | 7.00 to 7.70 |
| CCNC(=O)c1noc(-c2cc(C3CC3)c(O)cc2O)c1-c1ccc2c(c1)CCN(C)C2 [Example 35, 5-(5-cyclopropyl-2,4-dihydroxyl-phenyl)-N-ethyl-4-(2-methyl-1,2,3,4-tetrahydroisoquinolin-6-yl)isoxazole-3-carboxamide] | > 7.70 | 7.00 to 7.70 |
| CNC(=O)c1noc(-c2cc(C(C)C)c(O)cc2O)c1-c1ccc2c(c1)CCN(C)C2 [Example 36, 5-(2,4-dihydroxyl-5-isopropylphenyl)-N-methyl-4-(2-methyl-1,2,3,4-tetrahydroisoquinolin-6-yl)isoxazole-3-carboxamide] | > 7.70 | > 7.70 |
| CCCNC(=O)c1noc(-c2cc(C(C)C)c(O)cc2O)c1-c1ccc2c(c1)CCN(C)C2 [Example 37, 5-(2,4-dihydroxyl-5-isopropylphenyl)-N-propyl-4-(2-methyl-1,2,3,4-tetrahydroisoquinolin-6-yl)isoxazole-3-carboxamide] | 7.00 to 7.70 | 7.00 to 7.70 |
| CC(C)NC(=O)c1noc(-c2cc(C(C)C)c(O)cc2O)c1-c1ccc2c(c1)CCN(C)C2 [Example 38, 5-(2,4-dihydroxyl-5-isopropylphenyl)-N-isopropyl-4-(2-methyl-1,2,3,4-tetrahydroisoquinolin-6-yl)isoxazole-3-carboxamide] | 7.00 to 7.70 | 7.00 to 7.70 |
| CC(C)c1cc(-c2onc(C(=O)NCC(F)(F)F)c2-c2ccc3c(c2)CCN(C)C3)c(O)cc1O [Example 39, 5-(2,4-dihydroxyl-5-isopropylphenyl)-N-(2,2,2-trifluoroethyl)-4-(2-methyl-1,2,3,4-tetrahydroisoquinolin-6-yl)isoxazole-3-carboxamide] | 7.00 to 7.70 | 7.00 to 7.70 |
| CC(C)c1cc(-c2onc(C(=O)NCCF)c2-c2ccc3c(c2)CCN(C)C3)c(O)cc1O [Example 40, 5-(2,4-dihydroxyl-5-isopropylphenyl)-N-(2-fluoroethyl)-4-(2-methyl-1,2,3,4-tetrahydroisoquinolin-6-yl)isoxazole-3-carboxamide] | > 7.70 | > 7.70 |
| COCCNC(=O)c1noc(-c2cc(C(C)C)c(O)cc2O)c1-c1ccc2c(c1)CCN(C)C2 [Example 41, 5-(2,4-dihydroxyl-5-isopropylphenyl)-N-(2-methoxyethyl)-4-(2-methyl-1,2,3,4-tetrahydroisoquinolin-6-yl)isoxazole-3-carboxamide] | > 7.70 | 7.00 to 7.70 |
| COCCCNC(=O)c1noc(-c2cc(C(C)C)c(O)cc2O)c1-c1ccc2c(c1)CCN(C)C2 [Example 42, 5-(2,4-dihydroxyl-5-isopropylphenyl)-N-(3-methoxypropyl)-4-(2-methyl-1,2,3,4-tetrahydroisoquinolin-6-yl)isoxazole-3-carboxamide] | 7.00 to 7.70 | 7.00 to 7.70 |
| CC(C)c1cc(-c2onc(C(=O)NCCN(C)C)c2-c2ccc3c(c2)CCN(C)C3)c(O)cc1O [Example 43, 5-(2,4-dihydroxyl-5-isopropylphenyl)-N-[2-(dimethylamino)ethyl]-4-(2-methyl-1,2,3,4-tetrahydroisoquinolin-6-yl)isoxazole-3-carboxamide] | 7.00 to 7.70 | < 7.00 |
| CCNC(=O)c1noc(-c2cc(C(C)C)c(O)cc2O)c1-c1ccc2c(c1)CCN(CCO)C2 [Example 44, 5-(2,4-dihydroxyl-5-isopropylphenyl)-N-ethyl-4-(2-(2-hydroxyethyl)-1,2,3,4-tetrahydroisoquinolin-6-yl)isoxazole-3-carboxamide] | > 7.70 | 7.00 to 7.70 |
| CCNC(=O)c1noc(-c2cc(C(C)C)c(O)cc2O)c1-c1ccc2c(c1)CCN(CCOC)C2 [Example 45, 5-(2,4-dihydroxyl-5-isopropylphenyl)-N-ethyl-4-(2-(2-methoxyethyl)-1,2,3,4-tetrahydroisoquinolin-6-yl)isoxazole-3-carboxamide] | > 7.70 | 7.00 to 7.70 |
| CCNC(=O)c1noc(-c2cc(C(C)C)c(O)cc2O)c1-c1ccc2c(c1)CCN(CCF)C2 [Example 46, 5-(2,4-dihydroxyl-5-isopropylphenyl)-N-ethyl-4-(2-(2-fluoroethyl)-1,2,3,4-tetrahydroisoquinolin-6-yl)isoxazole-3-carboxamide] | 7.00 to 7.70 | > 7.70 |
| CCNC(=O)c1noc(-c2cc(C(C)C)c(O)cc2O)c1-c1ccc2c(c1)CCN(CCCOC)C2 [Example 47, 5-(2,4-dihydroxyl-5-isopropylphenyl)-N-ethyl-4-(2-(3-methoxypropyl)-1,2,3,4-tetrahydroisoquinolin-6-yl)isoxazole-3-carboxamide] | 7.00 to 7.70 | 7.00 to 7.70 |
| CCNC(=O)c1noc(-c2cc(C(C)C)c(O)cc2O)c1-c1ccc2c(c1)CCN(CCS(=O)(=O)CC)C2 [Example 48, 5-(2,4-dihydroxyl-5-isopropylphenyl)-N-ethyl-4-(2-(2-ethylsulfonyl)ethyl-1,2,3,4-tetrahydroisoquinolin-6-yl)isoxazole-3-carboxamide] | 7.00 to 7.70 | 7.00 to 7.70 |
| CCNC(=O)c1noc(-c2cc(C(C)C)c(O)cc2O)c1-c1ccc2c(c1)CCN(CC)C2 [Example 49, 5-(2,4-dihydroxyl-5-isopropylphenyl)-N-ethyl-4-(2-ethyl-1,2,3,4-tetrahydroisoquinolin-6-yl)isoxazole-3-carboxamide] | > 7.70 | 7.00 to 7.70 |
